Reference: article PMC11079064, “Discovery of a brain penetrant small molecule antagonist targeting LPA1 receptors to reduce neuroinflammation and promote remyelination in multiple sclerosis” (Scientific Reports, 2024)
“Also recorded” adds a separate entry of the source.

Experiments:
microglia = test: LPA-induced microglial activation in hippocampal slices; type: cell-based, mouse; settings: AM152, 10 µM LPA
Experimental: Microglial activation was then triggered by the addition of 10 µM LPA, slices incubated for 3 additional hours, then fixed. Slices were immunostained against IBA1 and microglial perimeters were measured as a mean of differentiating between ramified/resting versus rounded/activated microglia.
Brains were harvested from mice (postnatal day 20, Charles River). […] 400 µm thick coronal slices were cut on a McIlwain tissue chopper and returned to dissection media and separated manually. […] Slices were incubated for 2 h at 37 °C (4 slices per condition). Microglial activation was initiated by adding LPA (18:1, Avanti Polar Lipids) to a final concentration of 10 µM and incubated for 3 h. Slices were then fixed in formalin and for 2 h.
For immunohistochemistry, slices were washed for 3 × 15 min in 0.5% Triton-X100 and DPBS. Slices were then stained using IBA-1 antibody (Thermo Scientific) in 10% normal goat serum with 0.5% Triton-X100 in DPBS overnight on a rocker. Slices were then washed in 0.5% Triton-X100 in DPBS 3 × 15 min. Goat anti-mouse Alexa 564 (1:500, Invitrogen, Carlsbad, CA) and […] (Invitrogen, Carlsbad, CA) were diluted in DPBS with 0.5% Triton-X100 and incubated for 2h. Slices were washed 3 × 15 min in DPBS with 0.5% Triton-X100, mounted with Fluoromount and imaged on a Nikon A1R confocal microscope.

[1] = set-up: method as in PMID 34969771, PMID 30201408; settings: cited from earlier work
autotaxin = target: T1, autotaxin (Rattus norvegicus, UniProt Q64610); test: LPA species in macrophage-conditioned media; type: cell-based; settings: 1 µM, 48 h
T1 construct: Male Sprague Dawley rat macrophages were isolated from intraperitoneal lavage fluid; endogenous in cells; host or cells: primary rat peritoneal macrophages
Experimental: Autotaxin (ATX), an enzyme responsible for LPA synthesis, is elevated in CSF samples from multiple sclerosis patients and may be an underlying source of elevated LPA levels in the CNS during disease. […] To confirm the release of LPA from these macrophages, macrophage-conditioned media was taken 30 min or 48 h after plating and various LPA species were measured by mass spectrometry.
Rat macrophages were cultured as described above. Media from wells at 30 m or 48 h post-plating were taken. Media from macrophages treated with 1 µM PF-8380 (autotaxin inhibitor, Sigma, St Louis, MO) for 48 h was also collected. For LPA determination, 20 µl of culture media was aliquoted into glass 12 × 75 mm culture test tubes. 500 µl of 30 mM citric acid/40 mM disodium phosphate buffer (pH 4.0) with 1 ng/ml 17:0 LPA as an internal standard (IS) were also added to the test tubes. 2 ml of 1-butanol were then added to the test tubes, tubes covered with parafilm, vortexed for 10 s, and centrifuged for 10 min at 1000g at 4 °C. After centrifugation, the top layers were transferred to clean test tubes. The bottom layers were extracted again with 1 ml of water-saturated butanol. The test tubes were covered with parafilm, vortexed for 10 s, and centrifuged for 10 min at 1000g at 4 °C. […] After reconstitution, the samples were analyzed by LC–MS/MS using an AB Sciex 6500 + . […]

[2] = system: ROCK (Rho-associated kinase); set-up: method as in PMID 25289646; settings: cited from earlier work

Which “effect on LPA-induced decrease in microglial perimeter length” value (microglia) does the source give for `Cc1noc(-c2ccc(-c3ccc(C4(C(=O)O)CC4)cc3)cc2)c1NC(=O)O[C@H](C)c1ccccc1` [AM152, reference compound] here?
The value was “inhibits microglial activation; also recorded: inhibited”.

And the “Phase 1 tolerability” value [1]?
Its value is “demonstrated Phase 1 tolerability”.

Which “Phase 1 tolerability” value [1] does the source give for `CCCN(C)C(=O)OCc1c(-c2ccc(O[C@H]3CCC[C@H](C(=O)O)C3)c(C)n2)nnn1C` [BMS-986278] here?
Its value is “demonstrated Phase 1 tolerability”.

For `O=C(CCN1CCN(C(=O)OCc2cc(Cl)cc(Cl)c2)CC1)c1ccc2[nH]c(=O)oc2c1` [PF-8380], which “effect on increase of LPA species in macrophage-conditioned media” value (autotaxin) is on record?
The value was “prevents the induction of several LPA species; also recorded: inhibited”.

Which “effect on OPC differentiation” value [2] does the source give for `O=S(=O)(c1cccc2cnccc12)N1CCCNCC1` [fasudil] here?
The value was “leads to OPC differentiation”.
